Data taken from ChEMBL document CHEMBL1201862, “PubChem BioAssay data set” (2004).
Activity calls are given as the source filed them.

Columns and labels:
[1] = viability loss of HPDE-C7K cells – cell-based, fluorescence, HTS, primary screen (AID 431); format: functional; conditions: Homo sapiens
[2] = target: Neuropeptides B/W receptor type 1 (Homo sapiens, UniProt P48145); assay: Fluorescence-based dose response cell-based high throughput screening assay to identify antagonists of the G-protein coupled receptor 7 (GPR7). [Related pubchem assays: 1952 (Screening assay (GPR7 antagonists).), 1880 (Summary AID.)]; format: functional
Sequence of Neuropeptides B/W receptor type 1 (P48145 whole entry): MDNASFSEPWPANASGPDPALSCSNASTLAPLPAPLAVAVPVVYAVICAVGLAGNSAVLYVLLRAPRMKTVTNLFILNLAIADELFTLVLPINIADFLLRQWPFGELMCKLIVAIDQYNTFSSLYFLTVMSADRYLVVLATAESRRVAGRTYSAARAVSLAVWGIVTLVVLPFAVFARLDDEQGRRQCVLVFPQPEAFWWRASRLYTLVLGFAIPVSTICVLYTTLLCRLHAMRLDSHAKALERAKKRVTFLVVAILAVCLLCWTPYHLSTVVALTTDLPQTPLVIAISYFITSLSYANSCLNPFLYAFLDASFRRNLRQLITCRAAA

[3] = HPDE-C7 pancreatic duct cell viability loss – fluorescence, HTS (AID 430); format: functional, cell-based; conditions: Homo sapiens
[4] = target: Melanin-concentrating hormone receptor 1 (Homo sapiens, UniProt Q99705); assay: Fluorescence-based counterscreen for antagonists of the G-protein coupled receptor 7 (GPR7): cell-based high throughput dose response assay to identify antagonists of the melanin-concentrating hormone receptor 1 (MCHR1).; format: functional
Sequence of Melanin-concentrating hormone receptor 1 (Q99705 whole entry): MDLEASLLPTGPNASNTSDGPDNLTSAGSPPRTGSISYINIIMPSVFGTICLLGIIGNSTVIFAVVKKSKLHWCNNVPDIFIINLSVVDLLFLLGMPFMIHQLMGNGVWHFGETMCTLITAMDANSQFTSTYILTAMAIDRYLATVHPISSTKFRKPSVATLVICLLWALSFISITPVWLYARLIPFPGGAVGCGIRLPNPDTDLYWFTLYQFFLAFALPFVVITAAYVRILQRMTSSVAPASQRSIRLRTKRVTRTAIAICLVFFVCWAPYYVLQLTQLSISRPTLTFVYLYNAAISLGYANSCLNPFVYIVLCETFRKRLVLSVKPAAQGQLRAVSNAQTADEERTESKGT

[5] = target: T1, Ion channel NompC (Danio rerio, UniProt Q7T1G6); assay: activators of mucolipin-3 and mucolipin-2 – cell-based, […], Fura-2 profiling panel, panel member TRPN1 Dose Response (AID 2116)
T1 sequence (Q7T1G6 whole entry): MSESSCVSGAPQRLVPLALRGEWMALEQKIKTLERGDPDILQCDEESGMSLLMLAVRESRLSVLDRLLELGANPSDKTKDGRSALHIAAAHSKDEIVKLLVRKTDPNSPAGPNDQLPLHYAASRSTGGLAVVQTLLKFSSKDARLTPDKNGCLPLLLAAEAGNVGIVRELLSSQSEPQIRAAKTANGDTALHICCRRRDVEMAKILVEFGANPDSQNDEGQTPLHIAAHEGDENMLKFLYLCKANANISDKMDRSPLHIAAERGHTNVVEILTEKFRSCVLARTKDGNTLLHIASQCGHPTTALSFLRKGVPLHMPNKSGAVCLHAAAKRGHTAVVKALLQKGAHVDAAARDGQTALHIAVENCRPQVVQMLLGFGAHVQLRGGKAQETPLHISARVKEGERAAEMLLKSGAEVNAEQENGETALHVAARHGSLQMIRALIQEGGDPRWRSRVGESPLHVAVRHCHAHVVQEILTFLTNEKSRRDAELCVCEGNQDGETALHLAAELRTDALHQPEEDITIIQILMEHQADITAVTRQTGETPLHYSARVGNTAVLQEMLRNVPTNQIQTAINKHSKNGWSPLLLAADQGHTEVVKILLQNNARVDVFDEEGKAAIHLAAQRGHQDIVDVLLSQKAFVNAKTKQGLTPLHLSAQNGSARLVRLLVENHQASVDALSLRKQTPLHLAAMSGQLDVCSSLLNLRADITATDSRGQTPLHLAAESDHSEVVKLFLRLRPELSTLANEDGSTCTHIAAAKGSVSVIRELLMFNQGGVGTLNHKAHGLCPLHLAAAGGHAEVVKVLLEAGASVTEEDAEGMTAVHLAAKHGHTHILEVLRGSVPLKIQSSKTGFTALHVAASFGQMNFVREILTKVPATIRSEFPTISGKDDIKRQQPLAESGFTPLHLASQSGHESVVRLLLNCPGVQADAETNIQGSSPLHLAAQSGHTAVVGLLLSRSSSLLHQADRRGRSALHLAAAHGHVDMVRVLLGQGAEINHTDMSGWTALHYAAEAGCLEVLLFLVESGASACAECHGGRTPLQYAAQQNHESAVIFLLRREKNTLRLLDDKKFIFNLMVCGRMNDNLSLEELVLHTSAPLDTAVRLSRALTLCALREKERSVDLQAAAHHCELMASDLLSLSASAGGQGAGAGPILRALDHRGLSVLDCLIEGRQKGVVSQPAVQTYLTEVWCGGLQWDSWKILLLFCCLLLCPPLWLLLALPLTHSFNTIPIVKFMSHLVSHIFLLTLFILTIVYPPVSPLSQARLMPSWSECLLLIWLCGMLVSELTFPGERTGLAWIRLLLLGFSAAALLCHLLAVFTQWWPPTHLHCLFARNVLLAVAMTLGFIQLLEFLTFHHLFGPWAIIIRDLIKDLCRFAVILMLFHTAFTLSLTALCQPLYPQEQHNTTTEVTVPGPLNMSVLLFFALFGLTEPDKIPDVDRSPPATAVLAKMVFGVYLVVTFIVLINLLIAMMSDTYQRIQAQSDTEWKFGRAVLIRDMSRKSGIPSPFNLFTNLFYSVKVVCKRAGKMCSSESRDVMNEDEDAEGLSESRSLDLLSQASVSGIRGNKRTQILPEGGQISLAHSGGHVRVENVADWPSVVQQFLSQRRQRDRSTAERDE

[6] = target: T2, Mucolipin-3 (Homo sapiens, UniProt Q8TDD5); assay: Dose response cell-based high-throughput screening assay for agonists of the transient receptor potential channel ML3 (TRPML3). [Related pubchem assays: 1526, 1424, 1448 ]; format: functional
T2 sequence (Q8TDD5 whole entry): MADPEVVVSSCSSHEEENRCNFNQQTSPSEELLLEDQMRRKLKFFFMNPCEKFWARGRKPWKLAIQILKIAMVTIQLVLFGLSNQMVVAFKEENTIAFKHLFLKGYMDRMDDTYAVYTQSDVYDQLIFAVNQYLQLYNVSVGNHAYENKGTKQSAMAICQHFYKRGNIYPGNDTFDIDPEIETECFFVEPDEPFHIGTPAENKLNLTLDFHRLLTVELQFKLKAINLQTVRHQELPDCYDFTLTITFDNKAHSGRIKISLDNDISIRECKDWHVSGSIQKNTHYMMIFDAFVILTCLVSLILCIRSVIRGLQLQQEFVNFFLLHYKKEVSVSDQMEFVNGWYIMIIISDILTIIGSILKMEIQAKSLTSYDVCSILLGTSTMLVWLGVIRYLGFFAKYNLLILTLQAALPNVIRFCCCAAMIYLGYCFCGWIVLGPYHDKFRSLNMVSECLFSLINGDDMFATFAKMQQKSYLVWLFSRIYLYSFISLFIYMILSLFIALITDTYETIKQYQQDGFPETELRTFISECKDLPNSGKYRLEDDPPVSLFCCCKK

[7] = HEK-293T viability loss after treatment – luminescence, T-cell screen hits, cytotoxicity control for TCR NF-kB inhibitor project, dose response (AID 489026); format: functional, cell-based;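 note: cells exposed to compound about 14 hours before the viability readout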
[8] = target: T2, Mucolipin-3; assay: activators of mucolipin-3 and mucolipin-2 – cell-based, patch clamp, Fura-2 profiling panel, panel member TRPML3 Dose Response (AID 2116)
[9] = alpha-synuclein stem-loop luciferase translation blockers – H4 neuroglioma cells, luminescence, confirmation (AID 1988); format: functional, cell-based
[10] = target: T1, Ion channel NompC; assay: Fluorescence counterscreen assay for TRPML3 agonists: dose response cell-based high-throughput screening assay to identify agonists of the transient receptor potential channel N1 (TRPN1). [Related pubchem assays: 1526, 1424, 1448 ]; format: functional
[11] = Luminescence Cell-Based Dose Response HTS to Identify Inhibitors of 5'UTR Stem-Loop Driven Prion Protein mRNA Translation in H4 Neuroglioblastoma Cells. [Related pubchem assays: 1827 (Project Summary), 1813 (Primary HTS)]; format: functional
[12] = luciferase reporter signal suppression in cells – H4 neuroglioma cells, luminescence, dose response (AID 1990); format: functional, cell-based
[13] = target: Keap1/Nrf2 (Homo sapiens, UniProt Q14145); assay: disruptors of Keap1 binding to Nrf2 peptide – biochemical, fluorescence polarization, cherry-picked samples, dose response (AID 588683)
[14] = target: ORF 73 (Human herpesvirus 8, UniProt O40947); assay: KSHV LANA DNA-binding disruption – biochemical, fluorescence polarization, cherry-picked samples, dose response (AID 504725); set-up: species or system Human gammaherpesvirus 8;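 note: fluorescence polarization of a labeled DNA duplex reporting LANA DNA binding; potency is for inhibitors that block LANA binding to the DNA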
Sequence of ORF 73 (O40947 whole entry): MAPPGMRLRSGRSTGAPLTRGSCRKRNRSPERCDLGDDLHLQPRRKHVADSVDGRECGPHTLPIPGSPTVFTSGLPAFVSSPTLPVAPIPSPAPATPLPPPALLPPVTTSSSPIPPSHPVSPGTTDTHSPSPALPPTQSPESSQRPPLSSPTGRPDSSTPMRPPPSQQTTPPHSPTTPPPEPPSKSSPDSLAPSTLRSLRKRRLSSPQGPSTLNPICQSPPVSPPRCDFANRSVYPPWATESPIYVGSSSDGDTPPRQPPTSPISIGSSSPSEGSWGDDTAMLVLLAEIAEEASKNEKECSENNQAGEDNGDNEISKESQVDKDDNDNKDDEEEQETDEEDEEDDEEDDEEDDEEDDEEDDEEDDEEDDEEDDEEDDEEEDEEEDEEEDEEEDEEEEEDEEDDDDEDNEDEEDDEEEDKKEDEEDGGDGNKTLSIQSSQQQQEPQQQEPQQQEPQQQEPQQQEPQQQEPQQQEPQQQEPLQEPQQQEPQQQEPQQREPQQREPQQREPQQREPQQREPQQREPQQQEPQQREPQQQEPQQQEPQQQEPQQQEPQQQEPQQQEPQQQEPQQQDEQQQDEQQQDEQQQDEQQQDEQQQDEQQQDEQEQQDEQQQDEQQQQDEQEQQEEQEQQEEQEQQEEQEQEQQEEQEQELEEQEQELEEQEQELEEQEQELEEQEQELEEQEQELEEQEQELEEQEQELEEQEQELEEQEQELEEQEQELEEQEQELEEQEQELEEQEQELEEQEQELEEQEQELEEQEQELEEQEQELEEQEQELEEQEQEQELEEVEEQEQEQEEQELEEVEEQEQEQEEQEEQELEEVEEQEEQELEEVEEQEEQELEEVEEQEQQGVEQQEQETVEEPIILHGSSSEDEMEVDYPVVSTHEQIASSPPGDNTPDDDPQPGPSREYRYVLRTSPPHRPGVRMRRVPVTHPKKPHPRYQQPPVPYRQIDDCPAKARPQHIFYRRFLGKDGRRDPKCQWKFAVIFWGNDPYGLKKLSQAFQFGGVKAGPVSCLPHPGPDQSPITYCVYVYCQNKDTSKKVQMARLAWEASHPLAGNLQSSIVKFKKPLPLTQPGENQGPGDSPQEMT

[15] = tested on: HeLa; assay: viability loss in HeLa cells – cell-based, 24 h, cherry-picked samples, cytotoxicity control, dose response (AID 504726); format: functional; conditions: Homo sapiens;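 note: potency for cytotoxicity as loss of luminescence signal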
[16] = target: T3, Eukaryotic translation initiation factor 2-alpha kinase 3 (Homo sapiens, UniProt Q9NZJ5); assay: Counterscreen assay for PERK inhibitors: Dose response cell-based high throughput screening assay to measure inhibition of PERK at 6 hours. [Related pubchem assays: 1522, 1416 ]; format: functional
T3 sequence (Q9NZJ5 whole entry): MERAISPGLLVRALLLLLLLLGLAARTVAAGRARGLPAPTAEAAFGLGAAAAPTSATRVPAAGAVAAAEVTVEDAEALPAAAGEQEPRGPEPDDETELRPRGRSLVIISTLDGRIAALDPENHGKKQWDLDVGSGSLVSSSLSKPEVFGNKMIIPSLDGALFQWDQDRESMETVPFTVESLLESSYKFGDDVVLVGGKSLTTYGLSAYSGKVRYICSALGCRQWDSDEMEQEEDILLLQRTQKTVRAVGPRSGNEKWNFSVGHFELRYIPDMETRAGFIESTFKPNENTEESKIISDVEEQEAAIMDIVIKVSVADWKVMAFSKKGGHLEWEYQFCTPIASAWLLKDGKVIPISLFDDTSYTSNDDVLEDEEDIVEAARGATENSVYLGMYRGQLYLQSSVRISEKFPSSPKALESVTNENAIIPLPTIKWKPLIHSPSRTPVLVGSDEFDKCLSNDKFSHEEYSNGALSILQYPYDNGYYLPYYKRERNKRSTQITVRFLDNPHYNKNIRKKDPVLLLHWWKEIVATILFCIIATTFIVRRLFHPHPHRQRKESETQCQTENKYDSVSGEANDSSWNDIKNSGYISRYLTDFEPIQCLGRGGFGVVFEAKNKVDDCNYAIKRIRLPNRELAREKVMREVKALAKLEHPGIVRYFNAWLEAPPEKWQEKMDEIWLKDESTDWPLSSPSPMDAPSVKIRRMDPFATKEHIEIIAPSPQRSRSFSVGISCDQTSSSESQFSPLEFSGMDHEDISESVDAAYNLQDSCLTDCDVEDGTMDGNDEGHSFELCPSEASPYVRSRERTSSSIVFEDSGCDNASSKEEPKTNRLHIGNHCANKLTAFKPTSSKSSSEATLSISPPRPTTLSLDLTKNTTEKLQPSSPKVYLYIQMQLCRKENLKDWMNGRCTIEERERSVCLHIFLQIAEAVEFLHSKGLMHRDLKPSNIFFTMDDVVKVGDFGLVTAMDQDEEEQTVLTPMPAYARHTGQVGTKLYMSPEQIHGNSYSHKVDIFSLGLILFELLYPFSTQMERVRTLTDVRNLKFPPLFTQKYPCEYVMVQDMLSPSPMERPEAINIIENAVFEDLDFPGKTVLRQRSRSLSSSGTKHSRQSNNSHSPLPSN

[17] = target: T3, Eukaryotic translation initiation factor 2-alpha kinase 3; assay: Dose response cell-based high-throughput screening assay to measure PERK inhibition. [Related pubchem assays: 1416 ]; format: functional
[18] = THP-1 cell cytotoxicity, dose response, cytotoxicity control for non-replicating M. tuberculosis project (AID 489025); format: functional
[19] = NIH3T3 cell viability loss – ATP luminescence, mouse fibroblasts, counter-screen, dose response (AID 2010); format: functional, cell-based;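 note: cells exposed to compound for about 90 hours before reading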
[20] = Trypanosoma cruzi growth suppression in host cells – NIH3T3 host cells, beta-gal luminescence, confirmation (AID 2044); format: functional, cell-based;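 note: intracellular parasites grown in NIH/3T3 mouse fibroblasts as host cells; luminescent beta-galactosidase reporter signal from transgenic T. cruzi replicating inside host cells; inhibitors lower the luminescence signal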
[21] = HepG2 cell cytotoxicity, dose response, cytotoxicity control for non-replicating M. tuberculosis project (AID 489018); format: functional; conditions: Mycobacterium tuberculosis
[22] = cells; format: functional
[23] = Vero E6 cell cytotoxicity, dose response, cytotoxicity control for non-replicating M. tuberculosis project, secondary assay (AID 492998); format: functional, VeroE6; conditions: Vero C1008
[24] = DRD fibroblast viability loss – cell-based, non-viral oncogenic, luminescence, dose response (AID 1934); format: functional; conditions: Homo sapiens
[25] = tested on: Vero; assay: Vero cell viability after compound exposure – synthesized analogs, set II, cytotoxicity control for West Nile virus antiviral project, SAR follow-up (AID 2402); format: functional; conditions: Chlorocebus sabaeus
[26] = non-specific 3'UTR reporter inhibition in Clone20-Shn3RL – cell-based, Renilla luciferase, cherry-picked, counter-screen for Shn3 inhibitor project, dose response (AID 624133); format: functional
[27] = tested on: Vero; assay: cells; format: functional; conditions: Chlorocebus sabaeus
[28] = tested on: Vero; assay: host cell viability loss, Vero E6 – synthesized analogs, cytotoxicity control for West Nile virus antiviral project, SAR follow-up (AID 2244); format: functional; conditions: Chlorocebus sabaeus
[29] = cells; format: functional, cell-based
[30] = tested on: Vero; assay: Vero 76 cell viability after compound exposure – Vero 76 cells, synthesized analogs, cytotoxicity control for West Nile virus antiviral project, SAR follow-up (AID 2414); format: functional; conditions: Chlorocebus sabaeus
[31] = loss of viability in HepG2 cells – cell-based, CellTiter-Glo, cherry-picked, cytotoxicity control for Shn3 inhibitor project, dose response (AID 624134); format: functional
[32] = tested on: BJ; assay: BJ-TERT-LT-ST fibroblast viability loss – cell-based, RAS-independent, luminescence, dose response (AID 1935); format: functional; conditions: Homo sapiens;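 note: BJ fibroblasts immortalized with TERT plus LT and ST oncogenes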
[33] = tested on: Streptococcus; assay: GAS UMAA2166 growth inhibition – luminescence, BacTiterGlo, counter-screen for streptokinase expression inhibitor project, dose response (AID 1915); format: functional, organism-based;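 note: potency for reduction of bacterial viability or growth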
[34] = tested on: BJ; assay: BJ-TERT fibroblast viability loss – cell-based, RAS-independent, luminescence, dose response (AID 1933); format: functional; conditions: Homo sapiens
[35] = NIH-3T3 fibroblast cytotoxicity, dose response, cytotoxicity control, cell-based, fluorescence, Alamar Blue, secondary assay (AID 2327); format: functional;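 note: NIH-3T3 mouse fibroblasts cultured with fluconazole at 8 µg/mL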
[36] = reduction of Shn3 3'UTR-driven luciferase in osteoblasts – cell-based, Clone20 osteoblasts, firefly luciferase, cherry-picked, dose response (AID 624132); format: functional;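 note: firefly luciferase luminescence from reporter carrying the Shn3 3'UTR in osteoblasts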
[37] = A Cell Based Assay for the Identification of Probe candidate Compounds with Anti- Venezuelan Equine Encephalitis virus. [Related pubchem assays: 2409, 2419, 1621, 2238, 2405, 2024, 2065, 2402, 2414, 1635, 1650, 2244 ]; format: functional
[38] = fluconazole-exposed Candida albicans growth modulators – fluorescence, retest, confirmation (AID 2467); format: functional, cell-based
[39] = tested on: BJ; assay: cells; format: functional, cell-based; conditions: Homo sapiens
[40] = tested on: Streptococcus sp. 'group A'; assay: Streptococcus pyogenes SK(-)GAS viability under kanamycin – luminescence, BacTiterGlo, confirmation, counter-screen for streptokinase expression inhibitor project, dose response (AID 1900); format: functional, organism-based
[41] = tested on: INS1; assay: INS-1E survival protection against cytokine death – cell-based, luminescence, retest, dose response (AID 449756); format: functional; conditions: Rattus norvegicus;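 note: cell death triggered by IL-1 beta plus TNF-alpha plus IFN-gamma mixture; protective hits raise ATP signal compared with cytokine alone wells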
[42] = cells; format: functional, cell-based; remark: listed apart in the source

## CCc1ccccc1NC(=O)CN1C(=O)C2CCCN2c2ncc(Cl)cc21 (configuration not stated)
[1]
  EC50: > 20 µM (not active)
[2]
  IC50: > 43.8 µM (not active)
[3]
  EC50: > 20 µM (not active)
[4]
  IC50: > 43.8 µM (not active)

## Cc1ccc(S(=O)(=O)Nc2ccccc2-c2ccccc2)cc1
[5]
  EC50: > 29.9 µM (inactive)
[6]
  EC50: 1.59 µM (active)
[7]
  IC50: 79.9 µM (inactive)
[8]
  EC50: 2.14 µM (active)
[9]
  EC50: 11.2 µM (active)
[10]
  EC50: > 29.9 µM (not active)
[11]
  EC50: > 120 µM (not active)
[12]
  EC50: > 120 µM (not active)

## Cc1cccc(N2C(=O)c3cccc4c(N(C)CCO)ccc(c34)C2=O)c1
[13]
  AC50: 22.6 µM (active)
[14]
  AC50: 204 µM (active)
[15]
  AC50: 324 µM (active)

## COC(=O)c1ccc(OCCOc2ccc(C(=O)OC)cc2)cc1
[16]
  EC50: > 55.7 µM (not active)
[17]
  EC50: > 55.7 µM (not active)

## CC(=O)Nc1nc2ccccc2n1Cc1ccc(C)cc1
[18]
  CC50: > 40 µM (active)
[19]
  EC50: 7.78 µM (active)
[20]
  EC50: 3.92 µM (active)
[21]
  CC50: > 20 µM (active)
[22]
  IC50: 2.73 µM (active)
[23]
  CC50: > 20 µM (active)

## Oc1ccccc1C(Nc1nccs1)c1ccc2cccnc2c1O (configuration not stated)
[24]
  EC50: 10.7 µM (active)
[25]
  CC50: 7.2 µM (active)
[26]
  AC50: 2.47 µM (active)
[27]
  CC50: 10.3 µM (active)
[28]
  CC50: 8 µM (active)
[19]
  EC50: 9.11 µM (active)
[29]
  EC50: 12.5 µM (active)
[30]
  CC50: 21.6 µM (active)
[31]
  AC50: 6.74 µM (active)
[32]
  EC50: 9.11 µM (active)
[20]
  EC50: 0.832 µM (active)
[33]
  EC50: 6.55 µM (active)
[34]
  EC50: 8.13 µM (inconclusive)
[35]
  EC50: 6.03 µM (active)
[36]
  AC50: 1.13 µM (active)
[37]
  IC50: 20.9 µM (active)
[9]
  EC50: 9.59 µM (active)
[38]
  EC50: 1.4 µM (active)
[11]
  EC50: 8.46 µM (active)
[39]
  EC50: 13.9 µM (active)
[40]
  EC50: 2.3 µM (active)
[41]
  AC50: 1.95 µM (active)
[42]
  EC50: > 350 µM (not active)
[12]
  EC50: 11.9 µM (active)
